Measured values from patent US11236059B2, “Targeted cytotoxic ratjadone derivatives and conjugates thereof” (HELMHOLTZ-ZENTRUM FUER INFEKTIONSFORSCHUNG GMBH, priority 2017, dated 2022).
Read-outs that look alike come from different tables or passages of the source.

What was measured:
[1] = system: MCF-7 (DSMZ ACC 115) cells; assay: cells; type: cell-based
Description: (§1) 60 μL of serial dilutions of the test compound were given to 120 μL of suspended cells (50.000/mL) in wells of 96-well plates. After 5 days of incubation growth inhibition (IC50) was determined using an MTT assay.^[64]

[2] = system: A549 (DSMZ ACC 107) cells; assay: cells; type: cell-based
Description: as §1

[3] = system: SKOV-3 (DSMZ ATCC HTB 77) cells; assay: cells; type: cell-based
Description: as §1

[4] = system: KB 3.1 (DSMZ ACC 158) cells; settings: read-out: IC50 [nM] KB-3.1; growth inhibition, 5 days of incubation, MTT assay
CRM1 = target: T1, CRM1 (Homo sapiens, UniProt O14980); assay: Monitoring export inhibitory activity (translocation biosensor, HeLaRevBio cells); type: cell-based
T1 construct: HeLa cells stably expressing a fluorescent translocation biosensor (HeLaRevBio); endogenous in cells; host or cells: HeLa (HeLaRevBio in A7; HeLa in A8)
T1 sequence (O14980 whole entry): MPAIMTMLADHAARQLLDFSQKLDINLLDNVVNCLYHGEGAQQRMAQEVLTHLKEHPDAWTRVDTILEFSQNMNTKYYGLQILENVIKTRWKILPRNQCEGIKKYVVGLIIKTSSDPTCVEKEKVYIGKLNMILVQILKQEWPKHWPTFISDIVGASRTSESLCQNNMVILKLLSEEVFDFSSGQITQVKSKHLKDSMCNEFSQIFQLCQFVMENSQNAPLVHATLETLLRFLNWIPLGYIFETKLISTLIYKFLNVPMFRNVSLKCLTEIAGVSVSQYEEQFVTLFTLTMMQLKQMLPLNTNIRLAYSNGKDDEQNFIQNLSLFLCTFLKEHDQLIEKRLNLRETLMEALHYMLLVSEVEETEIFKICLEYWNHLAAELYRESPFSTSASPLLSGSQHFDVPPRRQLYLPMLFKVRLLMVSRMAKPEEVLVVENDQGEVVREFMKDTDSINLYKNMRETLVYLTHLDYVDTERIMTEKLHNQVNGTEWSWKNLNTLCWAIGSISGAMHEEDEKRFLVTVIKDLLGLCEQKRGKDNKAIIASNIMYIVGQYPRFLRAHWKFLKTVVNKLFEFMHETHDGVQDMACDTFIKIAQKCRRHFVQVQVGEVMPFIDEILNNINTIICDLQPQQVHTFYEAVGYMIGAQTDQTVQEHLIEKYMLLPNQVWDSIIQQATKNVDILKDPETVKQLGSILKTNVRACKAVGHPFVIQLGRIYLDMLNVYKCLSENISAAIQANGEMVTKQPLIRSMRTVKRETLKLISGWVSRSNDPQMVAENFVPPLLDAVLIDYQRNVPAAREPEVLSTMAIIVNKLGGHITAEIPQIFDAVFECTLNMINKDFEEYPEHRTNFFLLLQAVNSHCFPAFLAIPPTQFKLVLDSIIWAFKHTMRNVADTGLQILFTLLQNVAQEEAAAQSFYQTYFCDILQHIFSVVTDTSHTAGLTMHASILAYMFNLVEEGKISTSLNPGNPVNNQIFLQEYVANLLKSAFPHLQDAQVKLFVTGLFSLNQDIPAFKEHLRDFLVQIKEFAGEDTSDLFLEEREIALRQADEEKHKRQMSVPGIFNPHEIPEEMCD
How it was run: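 HeLa cells stably expressing an NLS-GST-GFP-RevNES shuttle biosensor were treated with compound for 1 h, then fixed and Hoechst-stained. GFP intensity in nuclear and cytoplasmic regions was quantified by high-content imaging, and the inner-minus-outer mean intensity difference was the readout. IC50 came from four-parameter logistic fit; single-point testing used 125 nM final.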

L-929 (DSMZ ACC 2) cells = assay: Cell proliferation assay (MTT), L-929; type: cell-based; settings: read-out: IC50 [nM] L-929
Description: as §1

[5] = target: T2, nuclear export receptor Crm1 (Homo sapiens, UniProt O14980); assay: Pull-down with ratjadone-biotin, LC-MS proteomic target identification; type: binding; settings: HeLa cells, 0.1 μg/ml, 5h; streptavidin sepharose; 79 proteins identified
T2 construct: HeLa cells stably expressing a fluorescent translocation biosensor (HeLaRevBio); endogenous in cells; host or cells: HeLa (HeLaRevBio in A7; HeLa in A8)
T2 sequence (O14980 whole entry): as above
Description: Binding of Ratjadone to the nuclear export receptor Crm1 was shown in a chemical pull down. HeLa cells were treated with ratjadone-biotin, ratjadone or both at 0.1 μg/ml final concentration for 5h. Cells were detached by scraping, washed twice in PBS and lysed in MPER-buffer (Thermo Fisher, Waltham, USA) supplemented with complete protease inhibitor (Roche, Mannheim, Germany). After 5 min incubation on ice the lysate was centrifuged (20 min, 13000 rpm, 4° C.) and the supernatant was incubated with streptavidin sepharose high performance (GE healthcare, Freiburg, Germany) overnight at 4° C. The next day beads were washed twice with PBS and resuspended in elution buffer (Roth) and heated to 95° C. for 10 min. 5% were tested on WesternBlot with a biotin-specific antibody (see FIG. 11). The eluate was given to the proteomics platform (J. Wissing) for identification of proteins.

[6] = system: KB 3.1 (DSMZ ACC 158) cells; assay: cells; settings: Homo sapiens, KB 3-1, 120 h, read-out: IC50 [nM] KB-3.1, growth inhibition, 5 days of incubation, MTT assay
[7] = HeLa cells stably expressing translocation biosensor, 1h of incubation, read-out: IC50 [nM] CRM1 (nuclear export inhibition)

Compound	IC50 ([1]; growth inhibition, 5 days of incubation, MTT assay, read-out: IC50 [nM] MCF-7) [nM]	IC50 ([2]; growth inhibition, 5 days of incubation, MTT assay, read-out: IC50 [nM] A-549) [nM]	IC50 ([3]; growth inhibition, 5 days of incubation, MTT assay, read-out: IC50 [nM] SK-OV-3) [nM]	IC50 [4] [nM]	IC50 (CRM1; [7]) [nM]	IC50 (L-929 (DSMZ ACC 2) cells; growth inhibition, 5 days of incubation, MTT assay) [nM]	proteins identified in the pull-down eluate [5]	IC50 (CRM1) [nM]	IC50 ([1]; Homo sapiens, MCF7, 120 h, read-out: IC50 [nM] MCF-7, growth inhibition, 5 days of incubation, MTT assay) [nM]	IC50 ([2]; Homo sapiens, A549, 120 h, read-out: IC50 [nM] A-549, growth inhibition, 5 days of incubation, MTT assay) [nM]	IC50 ([3]; Homo sapiens, SK-OV-3, 120 h, read-out: IC50 [nM] SK-OV-3, growth inhibition, 5 days of incubation, MTT assay) [nM]	IC50 [6] [nM]	IC50 (L-929 (DSMZ ACC 2) cells; Mus musculus, L929, 120 h) [nM]
C/C=C/[C@@H]1O[C@H]([C@H](O)/C=C/C=C(\C)C[C@@H](C)/C=C(C)\C=C\[C@H]2CC=CC(=O)O2)CC(=O)[C@@H]1C [19-Oxo-Ratjadone 9, (R)-6-((1E,3Z,5R,7E,9E,9E,11R)-11-hydroxy-3,5,7-trimethyl-11-((2S,5R,6S)-5-methyl-4-oxo-6-((E)-prop-1-en-1-yl)tetrahydro-2H-pyran-2-yl)undeca-1,3,7,9-tetraen-1-yl)-5,6-dihydro-2H-pyran-2-one]	0.48	0.1	0.16	0.36	13.3	24.3							
C/C=C/[C@@H]1O[C@H]([C@H](/C=C/C=C(\C)C[C@@H](C)/C=C(C)\C=C\[C@H]2CC=CC(=O)O2)NC(=O)OCCc2cn(CCOCCOCCOCCNC(=O)CCCC[C@@H]3SC[C@@H]4NC(=O)N[C@@H]43)nn2)C[C@@H](O)[C@@H]1C [Biotin-PEG3-16S-Aminoratjadone, 2-(1-(13-oxo-17-((3aS,4S,6aR)-2-oxohexahydro-1H-thieno[3,4-d]imidazol-4-yl)-3,6,9-trioxa-12-azaheptadecyl)-1H-1,2,3-triazol-4-yl)ethyl ((1S,2E,4E,7R,8Z,10E)-1-((2S,4R,5S,6S)-4-hydroxy-5-methyl-6-((E)-prop-1-en-1-yl)tetrahydro-2H-pyran-2-yl)-5,7,9-trimethyl-11-((R)-6-oxo-3,6-dihydro-2H-pyran-2-yl)undeca-2,4,8,10-tetraen-1-yl)carbamate]							CRM1 having the highest area	152					
C/C=C/[C@@H]1O[C@H](C(=O)/C=C/C=C(\C)C[C@@H](C)/C=C(C)\C=C\[C@H]2CC=CC(=O)O2)C[C@@H](O)[C@@H]1C [16-Oxo-Ratjadone 8, (R)-6-((R,1E,3Z,7E,9E)-11-((2S,4R,5S,6S)-4-hydroxy-5-methyl-6-((E)-prop-1-en-1-yl)tetrahydro-2H-pyran-2-yl)-3,5,7-trimethyl-11-oxoundeca-1,3,7,9-tetraen-1-yl)-5,6-dihydro-2H-pyran-2-one]					52.5				0.22	1.76	0.24	2.57	12.6
